Experimental findings from US6335031B1, “TTS containing an antioxidant” (priority 1998, dated 2002) are described below.

The nature of data set [1]: tolerability and absorption of Compound A from transdermal patches. In kind it is in vivo. As to the method: The transdermal devices of the invention in general have, for example an effective contact area of pharmaceutical composition on the skin of from about 1 to about 80 square centimeters, preferably about 10 square centimeters, and are intended to be applied at intervals of about once every 1 to 7 days, preferably 1-3 days. […] Compound A may, for example be administered at a dose of 8 mg in a patch of ca. 10 cm^2, once every day. The patch may be applied, for example on the abdomen, thigh, behind an ear, or on a shoulder or upper arm.
(§1) Higher dosages are possible, for example 4.5 mg twice daily and even 6 mg twice daily. Tolerability is seen to be even better for the transdermal device, wherein 24 mg were absorbed in 24 hours.

Data set [2] is described as follows: tolerability of Compound A given orally. The data set is classed as in vivo. The note with it: oral, initial dose 1.5 mg twice a day, stepped up to 3 mg twice daily in week 2. On the procedure:
as §1

A short description of data set [3]: degradation testing of Compound A and of the prior-art transdermal composition. In kind it is physicochemical. The note with it: particularly in the presence of oxygen; prior-art composition in occlusive polymer matrix and air-tight packaging.

Consider `CCN(C)C(=O)Oc1cccc([C@H](C)N(C)C)c1` [Compound A], for which the “tolerability of transdermal device compared with oral” value in data set [1] (transdermal device, 24 mg absorbed in 24 hours) is listed as “even better”. The amount absorbed in data set [1] (transdermal device, in 24 hours) was 24 mg; in data set [1] (transdermal, patches up to 80 cm^2 containing 36 mg compound A) it was 12 mg. For the same compound, the tolerability result was “well tolerated” in data set [1] (transdermal, 36 mg free base in up to 80 cm^2 of patches) and “well tolerated” in data set [2]. Also, the susceptibility to degradation result in data set [3] is reported as “susceptible to degradation”.
